Target: T1, human ADRA2B receptor (Homo sapiens, UniProt P18089)
T1 construct: expressed in transfected cells
T1 sequence (P18089 1-450): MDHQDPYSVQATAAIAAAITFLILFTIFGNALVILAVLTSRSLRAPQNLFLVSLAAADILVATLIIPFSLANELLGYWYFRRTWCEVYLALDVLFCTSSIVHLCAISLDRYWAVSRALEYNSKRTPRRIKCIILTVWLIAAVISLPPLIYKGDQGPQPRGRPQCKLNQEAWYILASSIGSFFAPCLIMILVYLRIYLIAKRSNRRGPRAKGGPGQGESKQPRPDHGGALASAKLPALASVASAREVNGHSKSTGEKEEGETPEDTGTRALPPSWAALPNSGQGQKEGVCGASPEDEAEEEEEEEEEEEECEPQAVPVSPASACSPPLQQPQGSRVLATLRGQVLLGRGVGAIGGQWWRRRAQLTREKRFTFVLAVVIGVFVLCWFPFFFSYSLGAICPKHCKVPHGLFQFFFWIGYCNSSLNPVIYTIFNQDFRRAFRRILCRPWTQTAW
Assay: ADRA2B arrestin agonist assay
Type: cell-based
Details: CHO-K1 cells stably expressing human ADRA2B; read-out: Beta-Arrestin - Human Alpha2B EC50
Method: ADRA2A and ADRA2B Arrestin Agonist Assay Method
The arrestin assay uses frozen CHO-K1 cell lines stably expressing human ADRA2A and ADRA2B receptors. Cells are frozen following normal cell freezing protocols. Briefly, cells are washed with PBS and then dissociated with 0.25% trypsin. Dissociated cells are quenched in full media and then collected by centrifugation at 290×g for 5 minutes. […] Cells are stored at −80° C. (or in liquid N2 if stored >6 months) until the day of the assay.
On the day before the assay, frozen cells are thawed in a 37° C. water bath, brought up in 20 mL of full media, and collected via centrifugation at 290×g for 5 minutes. […] Cells are incubated overnight in a 37° C., 5% CO2 cell incubator.
On the day of the assay, agonists are diluted in Opti-MEM to 3.5x of the final assay concentration. 4 μL of agonists are added to the cells and incubated for 2 hours at 37° C. in a 5% CO2 cell incubator. 6 μL of arrestin detection reagents are dispensed onto the cells and the plates are incubated for 2 hours at room temperature. […] Plates are read on an Envision luminescence plate reader.

| EC50 [nM] | Compound |
| --- | --- |
| < 10 | Cc1cccc(C(Cc2ccnn2C)c2c[nH]cn2)c1Cl (centres unmarked) [Compound 399, 5-[2-(2-chloro-3-tolyl)-2-(4-imidazolyl)ethyl]-1-methylpyrazole] |
| 10 to 50 | COc1nccc(CC(c2c[nH]cn2)c2ccccc2OC2CC2)n1 (centres unmarked) [Compound 195, 4-[2-(o-cyclopropoxyphenyl)-2-(4-imidazolyl)ethyl]-2-methoxypyrimidine] |
| < 10 | Cc1cccc(C(Cc2ccnc(C(C)(C)O)n2)c2c[nH]cn2)c1C (centres unmarked) [Compound 353, 2-{4-[2-(4-imidazolyl)-2-(2,3-xylyl)ethyl]-2-pyrimidinyl}-2 propanol] |
| 50 to 500 | COc1nccc(CC(c2c[nH]cn2)c2cccc3cnn(C)c23)n1 (centres unmarked) [Compound 350, 7-[1-(4-imidazolyl)-2-(2-methoxy-4-pyrimidinyl)ethyl]-1-methyl-1H-indazole] |
| 10 to 50 | Cc1cccc(CC(c2c[nH]cn2)c2cccc(C)c2F)n1 (centres unmarked) [Compound 259, 4-[1-(2-fluoro-3-tolyl)-2-(6-methyl-2-pyridyl)ethyl]imida-zole] |
| > 500 | Cc1cccc([C@H](Cc2cn(C)nn2)c2c[nH]cn2)c1F [Compound 250, 4-[(S)-2-(2-fluoro-3-tolyl)-2-(4-imidazolyl)ethyl]-1-methyl-1H-1,2,3-triazole] |
| 10 to 50 | Cn1cc(CC(c2c[nH]cn2)c2cccc3c2OCC3)nn1 (centres unmarked) [Compound 258, 4-[2-(2,3-dihydro-1-benzofuran-7-yl)-2-(4-imidazolyl)ethyl] 1-methyl-1H-1,2,3-triazole] |
| > 500 | Cc1nccc(C[C@H](c2c[nH]cn2)c2cccc(C)c2F)n1 [Compound 142, 4-[(S)-2-(2-fluoro-3-tolyl)-2-(4-imidazolyl)ethyl]-2-methylpyrimidine] |
| < 10 | Cc1cccc(C(Cc2nc(CO)ccc2F)c2c[nH]cn2)c1C (centres unmarked) [Compound 317, {5-fluoro-6-[2-(4-imidazolyl)-2-(2,3-xylyl)ethyl]-2-pyridyl}methanol] |
| 50 to 500 | COc1c(C)cccc1C(Cc1ccnc(CO)n1)c1c[nH]cn1 (centres unmarked) [Compound 347, {4-[2-(4-imidazolyl)-2-(2-methoxy-3-tolyl)ethyl]-2-pyrimidinyl}methanol] |
| < 10 | Cc1nccc(CC(c2c[nH]cn2)c2cccc(C)c2Cl)n1 (centres unmarked) [Compound 157, 4-[2-(2-chloro-3-tolyl)-2-(4-imidazolyl)ethyl]-2-methylpyrimidine] |
| > 500 | COc1nccc(CC(c2c[nH]cn2)c2ccccc2C(F)(F)F)n1 (centres unmarked) [Compound 354, 4-{2-(4-imidazolyl)-2-[o-(trifluoromethyl)phenyl]eth-yl}-2-methoxypyrimidine] |
| < 10 | Cc1nccc(C[C@@H](c2c[nH]cn2)c2cccc(C)c2F)n1 [Compound 141, 4-[(R)-2-(2-fluoro-3-tolyl)-2-(4-imidazolyl)ethyl]-2-methylpyrimidine] |
| 50 to 500 | COc1c(C)cccc1C(Cc1cc(C)ncn1)c1c[nH]cn1 (centres unmarked) [Compound 276, 4-[2-(4-imidazolyl)-2-(2-methoxy-3-tolyl)ethyl]-6-methylpyrimidine] |

The remaining lines, values behind:

| Compound | EC50 [nM] |
| --- | --- |
| Cc1cccc([C@@H](Cc2cnco2)c2c[nH]cn2)c1F [Compound 369, 5-[(R)-2-(2-fluoro-3-tolyl)-2-(4-imidazolyl)ethyl]-1,3-oxazole] | > 500 |
| Cn1nccc1CC(c1c[nH]cn1)c1cccc2ccn(C)c12 (centres unmarked) [Compound 267, 5-[2-(4-imidazolyl)-2-(1-methyl-7-indolyl)ethyl]-1-methylpyrazole] | 50 to 500 |
| Cc1cccc([C@H](Cc2ccn(C3COC3)n2)c2c[nH]cn2)c1C [Compound 296, 3-[(S)-2-(4-imidazolyl)-2-(2,3-xylyl)ethyl]-1-(3-oxetanyl)pyrazole] | 10 to 50 |
| CC(C)n1cc(C[C@H](c2c[nH]cn2)c2cccc3c2OCC3)cn1 [Compound 298, 4-[(S)-2-(2,3-dihydro-1-benzofuran-7-yl)-2-(4-imidazolyl)ethyl]-1-isopropylpyrazole] | < 10 |
| Cc1cccc([C@H](Cc2cnco2)c2c[nH]cn2)c1C [Compound 364, 5-[(S)-2-(4-imidazolyl)-2-(2,3-xylyl)ethyl]-1,3-oxazole] | < 10 |
| Cc1cccc(C(Cc2cn(C3CC3)nn2)c2c[nH]cn2)c1C (centres unmarked) [Compound 404, 1-cyclopropyl-4-[2-(4-imi-dazolyl)-2-(2,3-xylyl)ethyl]-1H-1,2,3-triazole] | < 10 |
| c1cc2c(c(C(Cc3ccn4ccnc4c3)c3c[nH]cn3)c1)OCC2 (centres unmarked) [Compound 398, 4-[2-(1,3a-diaza-6-indenyl)-1-(2,3-dihydro-1-benzofuran-7-yl)ethyl]imidazole] | < 10 |
| Cc1cc(CC(c2c[nH]cn2)c2cccc(C)c2C)nc(C(C)(C)F)n1 (centres unmarked) [Compound 206, 2-(1-fluoro-1-methylethyl)-4-[2-(4 imidazolyl)-2-(2,3-xylyl)ethyl]-6-methylpyrimidine] | < 10 |
| COc1c(C)cccc1C(Cc1cnco1)c1c[nH]cn1 (centres unmarked) [Compound 375, 5-[2-(4-imidazolyl)-2-(2-methoxy-3-tolyl)ethyl]-1,3-oxazole] | 50 to 500 |
| c1cc2c(c(C(Cc3cnco3)c3c[nH]cn3)c1)OCC2 (centres unmarked) [Compound 390, 5-[2-(2,3-dihydro-1-benzofuran-7-yl)-2-(4-imidazolyl)ethyl] 1,3-oxazole] | 10 to 50 |
| Cc1cccc(C(Cc2cccn3ccnc23)c2c[nH]cn2)c1C (centres unmarked) [Compound 402, 4-[2-(1,3a-diaza-7-indenyl)-1-(2,3-xylyl)ethyl]imidazole] | 10 to 50 |
| Cc1nc(CC(c2c[nH]cn2)c2cccc(C)c2C)no1 (centres unmarked) [Compound 243, 3-[2-(4-imidazolyl)-2-(2,3-xylyl)ethyl]-5-methyl-1,2,4-oxadiazole-formic acid (1/1)] | 50 to 500 |

Target: T1, human ADRA2B receptor
Assay: GTPγS agonist assay, ADRA2B receptor
Type: biochemical
Details: read-out: GTPase - Human Alpha2B EC50
In short: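 CHO-K1 membranes stably expressing human ADRA2B (5 μg protein) in 20 mM HEPES, 10 mM MgCl2, 200 mM NaCl with GDP, preincubated 10 min at room temperature with compound. Binding reaction 1 h at 37° C; bound label collected on GF/C filters, washed, read by scintillation counting.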

| EC50 [nM] | Compound |
| --- | --- |
| < 10 | COc1nccc(CC(c2c[nH]cn2)c2cccc3c2ccn3C)n1 (centres unmarked) [Compound 193, 4-[2-(4-imidazolyl)-2-(1-methyl-4-indolyl)ethyl]-2-methoxypyrimidine] |
| > 500 | Fc1ccc(C(Cc2cccnn2)c2c[nH]cn2)c(F)c1Cl (centres unmarked) [Compound 173, 3-[2-(3-chloro-2,4-difluorophenyl)-2-(4-imidazolyl)ethyl] pyridazine] |
| > 500 | COc1ccc(Cl)c(C(Cc2cccnn2)c2c[nH]cn2)c1 (centres unmarked) [Compound 227, 3-[2-(2-chloro-5-methoxyphenyl)-2-(4-imidazolyl)ethyl] pyridazine] |
| > 500 | Cc1ccc(Cl)cc1C(Cc1cccnn1)c1c[nH]cn1 (centres unmarked) [Compound 225, 3-[2-(5-chloro-2-tolyl)-2-(4-imidazolyl)ethyl] pyridazine] |
| > 500 | Cc1cc(C[C@@H](c2c[nH]cn2)c2cccc(C)c2C)no1 [Compound 135, 3-[(R)-2-(4-imidazolyl)-2-(2,3-xylyl)ethyl]-5-methyl-isoxazole] |

Second part, the compound before the results:

| Compound | EC50 [nM] |
| --- | --- |
| FC(F)Oc1cccc([C@H](Cc2ccccn2)c2cnc[nH]2)c1 [Compound 37] | 10 to 50 |
| Cc1cccc([C@H](Cc2cscn2)c2c[nH]cn2)c1C [Compound 120, 4-[(S)-2-(4-imidazolyl)-2-(2,3-xylyl)ethyl]-1,3-thiazole] | > 500 |
| c1ccc(C[C@H](c2cnc[nH]2)c2cccc3c2OCC3)nc1 [Compound 43, 2-[(2S)-2-(2,3-dihydro-1-benzofuran-7-yl)-2-(1H-imidazol-4-yl)ethyl] pyridine] | > 500 |
| Cc1cccc(C(Cc2cncs2)c2c[nH]cn2)c1C (centres unmarked) [Compound 116, 5-[2-(4-imidazolyl)-2-(2,3-xylyl)ethyl]-1,3-thiazole] | 10 to 50 |
